One assay deals with p53 ubiquitination. As to the kind of experiment: cell-based p53 ubiquitination assay in H1299 cells. To be noted: H1299 transfected with p53, Mdm2, ubiquitin; 10 μg/ml pre-treatment, 10 μM MG132. Details: species or system human. On the procedure: To obtain the results shown in FIG. 4A, Mdm2-luciferase cells were transfected with ubiquitin-HA and treated 8 hours later with 10 μg/ml (28 μM) MEL23, 10 μg/ml (31 μM) MEL24, or a DMSO control. After 16 hours, cells were additionally treated with 10 μM MG132 or a DMSO control. After 3 hours, cells were lysed and immunoprecipitated for 3 hours with anti-HA affinity matrix. Total lysates and immunoprecipitated samples were analyzed by Western blotting using anti-Mdm2 antibody. NT indicates a no treatment control. […] After 8 hours, cells were treated with 10 μg/ml (28 μM) MEL23, 10 μg/ml (31 μM) MEL24, or a DMSO control. After 16 hours, cells were additionally treated with 10 μM MG132 or a DMSO control. After 3 hours cells were lysed and analyzed by Western blotting using anti-p53 antibody. “p53-Ub” indicates the slower migrating species of the protein that are the ubiquitin-conjugated forms.
To test the effects of the MEL compounds on p53 ubiquitination, H1299 cells were transfected with plasmids expressing p53, Mdm2, and ubiquitin and pre-treated with 10 μg/ml MEL23 or MEL24, followed by treatment with 10 μM MG132. Ubiquitination of p53 was analyzed by Western blotting. […] In fact, the half-life of p53 increased from an hour to greater than 6 hours with 5 μg/ml MEL23 treatment (FIG. 32). Thus, treatment with MEL23 and MEL24 inhibits ubiquitin conjugation to Mdm2 and p53.

Assay [1] addresses T1, Mdm2(C464A)-luciferase fusion protein (Homo sapiens, UniProt Q00987, C464A).
T1 construct: Using full-length Mdm2 allowed for the presence of all domains of Mdm2; expressed in transfected cells
As to the kind of experiment: counter screen in control Mdm2(C464A)-luciferase cell line. The assay is classed as cell-based. The procedure:
The Mdm2-luciferase cell line was seeded at 7,500 cells per well, in 384-well white plates (PerkinElmer, Waltham, Mass., Cat. No. 6007688), in 27 μl of media (DMEM with FBS and P/S). Assay plates with cells were incubated at 37° C. overnight to allow cells to adhere. After 24 hours, 2 μl from the ‘mother’ plate (4 mg/ml) was transferred to a ‘daughter plate’ containing 148 μl media in order to dilute the compound 1:75. Next, 3 μl from each well of the ‘daughter plates’ was added to triplicate assay plates for a final concentration of 5.33 μg/ml. Assay plates were incubated at 37° C. for 2 hours. Then the cells were lysed with the addition of 30 μl of luminescence buffer (PerkinElmer, Cat. No. 6016989), and the plates were incubated at room temperature for 30 minutes before being analyzed on a Victor3 Plate Reader (PerkinElmer) for luminescence. Compounds that caused an increase in luminescence greater than 30% were re-ordered for further analysis. […] This was determined by comparing the negative control, no treatment, to the positive control, 10 μM MG132. […]
The above experiments verified that the cell lines could function as a valid system to screen for Mdm2 E3 ligase inhibitors. […] All compounds were incubated with the Mdm2-luciferase cell line for 2 hours, after which relative luminescence was detected by the addition of a luminesence buffer. […]
In general terms: The purpose of a counterscreen is to sort out artefacts and off-target activity.

The text below walks through data of patent US20120135089A1, “E3 LIGASE INHIBITORS” (priority 2009, published 2012).

T1 sequence (Q00987 whole entry C464A, the tested form may be a part): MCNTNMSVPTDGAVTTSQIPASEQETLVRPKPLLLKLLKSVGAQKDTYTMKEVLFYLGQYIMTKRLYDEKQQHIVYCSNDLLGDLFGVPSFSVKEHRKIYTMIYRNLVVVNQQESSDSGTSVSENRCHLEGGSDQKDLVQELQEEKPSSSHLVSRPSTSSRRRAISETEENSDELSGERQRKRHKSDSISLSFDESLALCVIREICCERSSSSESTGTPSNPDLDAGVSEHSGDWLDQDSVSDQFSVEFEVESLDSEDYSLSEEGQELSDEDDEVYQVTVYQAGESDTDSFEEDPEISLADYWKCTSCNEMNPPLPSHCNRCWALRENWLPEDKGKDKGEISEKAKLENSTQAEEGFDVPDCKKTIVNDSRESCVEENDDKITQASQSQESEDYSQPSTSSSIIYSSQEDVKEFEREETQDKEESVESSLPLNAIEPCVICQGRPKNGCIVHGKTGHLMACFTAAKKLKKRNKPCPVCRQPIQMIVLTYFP

On to `CCCCn1c(=O)[nH]c(O)c(C2NCCc3c2[nH]c2ccccc32)c1=O` (stereo not shown) [MEL23], for which the “p53 ubiquitination in cells” value with p53 ubiquitination is on record as “eliminated by pre-treatment”. In assay [1], the “luminescence of the control Mdm2(C464A)-luciferase cell line” value is on record as “did not significantly affect”.

Consider `Cn1c(O)c(C2NCCc3c2[nH]c2ccccc32)c(=O)n(C)c1=O` (stereo not shown) [MEL24], for which, in the assay with p53 ubiquitination, the “p53 ubiquitination in cells” value is listed as “eliminated by pre-treatment”. Besides, the “luminescence of the control Mdm2(C464A)-luciferase cell line” value in assay [1] is “did not significantly affect”.
